# Experimental data taken from US10081615B2, “Sulfamate derivative compounds for use in treating or alleviating pain” (Bio-Pharm Solutions Co., Ltd., priority 2013, dated 2018).
# Like-named read-outs stand apart in the source and are kept apart here.
# Tests used:
# [1] = test system: acetic acid-induced writhes; test: Writhing test (acetic acid); type: in vivo, ICR mice
# Procedure: To examine the pain relief effect of the sulfamate derivative compounds, a writhing test was referring to Fischer, L. G. et al. (2008).
# ICR mice (male, 24-28 g; Orient Bio, Korea) were habituated before test in test room for 1 hour. Animals were fasted for 2 hr before administration of compounds. […] All compounds were dissolved in a vehicle of 30% (v/v) PEG 400 or 20% (v/v) Tween 80. The control group was treated with the vehicle without compounds.
# […] Animals were habituated in the cage for 5 min. 5 min after habituation, the number of writhes (abdominal constriction) was counted for 15 minutes referring to Korzeniewska-Rybicka, I. et al. (1998) and compared with that of the control.
# CFA-induced pain model = test: Antiallodynic activity on Complete Freund's Adjuvant (CFA)-induced inflammatory pain model (von Frey); type: in vivo, Sprague-Dawley rats; conditions: ip
# [2] = test system: Post operation-induced pain model; test: Antiallodynic activity on post operative pain-induced pain model (von Frey); type: in vivo, Sprague-Dawley rats; conditions: 0.5 h; for ED50: ip
# Procedure: Male Sprague-Dawley rats (Orient Bio, Korea), 300-320 g, total of 201 rats were used (details in Table 7). Rats were habituated at least 3 days before surgery and free access to food and water (room temperature and humidity were maintained at […] and 50±10%, respectively). The process of performing the post-operation model's surgery was adapted from Brennan et al (1996). At first, rats with allodynia (threshold valueless than 8 g) were excluded in Pre-von Frey Test. During the post-operation surgery, rats were anesthetized under gaseous anesthesia with 2% isoflurane. Rats were laid face down on a plate fixed at 37° C. to prevent against hypothermia. The ipsilateral plantar aspect (left side) of the hind paw was prepared in a sterile manner with a 10% povidone-iodine solution. A longitudinal incision (1 cm) (FIG. 2-A) was made with a blade (number 11) through the skin and fascia of the ipsilateral plantar aspect of the foot, starting from 0.5 cm below the proximal edge of the heel and extending toward the toes. Rats' plantar muscles were elevated and incised longitudinally (FIG. 2-B). After hemostasis with gentle pressure, the skin was opposed with 2 mattress sutures (4-0 Dafilon) (FIG. 2-C). The wound site was covered with a 10% povidone-iodine solution gauze and injected with antibiotics (gentamicin, 8 mg/kg, ip). The sutures were removed under halothane anesthesia approximately 30 hours later, at the end of post-operative day 1.
# After 2-3 days of recovery, rats with a good response (threshold less than 4 g) in Pre-von Frey Test were selected. According to this response, we made three groups with each group having equal average responses: Group 1, post-operation and drug treated; Group 2, post-operation and vehicle treated; Group 3, no post-operation and vehicle treated. In this study, Group 3 was the sham control (positive) group. The group 2 was used to check for possible failures to generate post-operative pain.
# For efficacy measure, the threshold value of group C was assigned 100% efficacy, and the percentage of the threshold values of group A compared to group C (for each different dose level) were calculated as the efficacies. Base on these efficacy values, ED50 was calculated using log fitting. If there was no clear ED50, then we marked the percent efficacy at the highest tested dose or larger than highest tested dose.
# For pain threshold test, all animals were placed in a stainless steel meshed chamber and habituated for 30 min in the test box. The tactile sensitivity of the ipsilateral hind paw was measured using the up-and-down method (Dixon, 1980) with seven von Frey monofilaments (0.4, 1, 2, 4, 6, 8, and 15 g) using 3 trials. The 50% paw withdrawal threshold for each paw was calculated using the following formula: [Xth] log=[vFr] log+ky, where [vFr] is the force of the last von Frey filament used, k=0.2249 which is the average interval (in log units) between the von Frey monofilaments, y which is a value that depends upon the pattern of withdrawal responses, and Xth which is the threshold value (Dixon, 1980).
# Drugs were dissolved 30% PEG400 for example 60, 0.9% saline for Pregabalin, 20% Tween80 for Tylenol, 0.9% saline for Topiramate. These vehicles were selected depending on the compound's solubility. Intraperitoneal injection (5 μl/g) was done for all drugs.
# The relative values compared to the sham (% control) were calculated and shown in Table 8, which show an antiallodynic effect of the compound of examples on Post operation-induced pain model in rats.
# [3] = Rattus norvegicus, 0.5 h, read-out: CFA model: ED50 mg/kg
# [4] = Rattus norvegicus, read-out: Post Operation: ED50 mg/kg
# [5] = Mus musculus, po, 0.5 h, read-out: Writh test: ED50 mg/kg
SMILES,ED50 (CFA-induced pain model; [3]) [mg/kg],"ED50 [2, 4] [mg/kg]","ED50 [1, 5] [mg/kg]",other results
"CC1(C)Oc2ccccc2[C@@H](COS(N)(=O)=O)O1 [Example 2, ((S)-2,2-dimethyl-4H-benzo[d][1,3]dioxin-4-yl)methyl sulfamate]",,,,"ED50 ([1]; mouse, oral, 1 h, read-out: Writh test: ED50): 152 mg/kg; ED50 (CFA-induced pain model; rat, intraperitoneal, 0.5 h, read-out: CFA model: ED50): 18.8 mg/kg; ED50 ([2]; rat, intraperitoneal, read-out: Post Operation: ED50): 14.9 mg/kg"
"CC1(C)Oc2ccccc2[C@H](COS([NH-])(=O)=O)O1.[Na+] [Example 58, Sodium (R)-(((2,2-dimethyl-4H-benzo[d][1,3]dioxin-4-yl)methoxy)sulfonyl)amide Trihydrate]",23.3,19.4,,
"CC1(C)Oc2ccccc2C(COS([NH-])(=O)=O)O1.[Na+] (centres unmarked) [Example 60, Sodium (((2,2-dimethyl-4H-benzo[d][1,3]dioxin-4-yl)methoxy)sulfonyl)amide Trihydrate]",,18.9,21,"ED50 (CFA-induced pain model; Rattus norvegicus, 1 h, read-out: CFA model: ED50 mg/kg): 25 mg/kg"
"[NH-]S(=O)(=O)OC[C@H]1OC2(CCCC2)Oc2ccccc21.[Na+] [Example 65, Sodium (S)-(((4H-spiro[benzo[d][1,3]dioxine-2,1′-cyclopentan]-4-yl)methoxy)sulfonyl)amide]",89.1,31.8,55.1,
"CC1(C)Oc2ccccc2[C@H](COS([NH-])(=O)=O)O1.[K+] [Example 70, Potassium (R)-(((2,2-dimethyl-4H-benzo[d][1,3]dioxin-4-yl)methoxy)sulfonyl)amide]",,,,"Writh test: effect (%) compared to control ([1]; mouse, oral, 80 mg/kg administered, 1 hr): (29.1%, 1 hr); response vs control in vivo at 25 mg/kg (CFA-induced pain model; Rattus norvegicus, 0.5 h, read-out: CFA model: effect (%) compared to control): 10.5%; Post Operation: effect (%) compared to control ([2]; rat, intraperitoneal, 18.9 mg/kg administered): (22.0%, 0.5 h)"
